Reference: US20250243464A1, “ENHANCED DIFFERENTIATION OF PANCREATIC ISLET CELLS” (Vertex Pharmaceuticals Incorporated, priority 2022, published 2025)

Columns and labels:
[1] = system: PDX1+/NKX6.1+ cells; assay: Flow cytometry for NKX6.1 and PDX1 at S4C after amino acid supplementation in S1; type: cell-based; details: supplementation in S1 to final 200 μM aspartate, 300 μM glycine, 585 μM serine
Method: (§1) To determine whether supplementation of amino acids identified in Example 1 altered cellular differentiation outcomes, the following experiments were conducted. […] A control condition following Protocol 2 only was also performed.
At S4C, samples of the cells that were supplemented with different amino acids during the S1C step were collected and stained with NKX6.1 and PDX1 and analyzed using flow cytometry.

[2] = system: Sox17+/Oct4− cells; assay: Flow cytometry for Sox17 and Oct4 at S1C after amino acid supplementation in S1 of Protocol 2; type: cell-based; details: supplementation in S1 to final 200 μM aspartate, 300 μM glycine, 585 μM serine, Protocol 2, 0.3 L scale
Method: as §1
The amino acid supplemented S1 base media were utilized for each S1 feed in a Protocol 2 differentiation at 0.3 L scale, alongside a control. At S1C, samples of cells were collected, stained with Sox17 and Oct4 and analyzed by flow cytometry.

[3] = system: ISL1+/NKX6.1+ (β-like) cells and ISL1+/NKX6.1− (α-like) cells; assay: Flow cytometry for NKX6.1 and ISL1 at S5C after amino acid supplementation in S1; type: cell-based; details: supplementation in Stage 1; for amount of SC-β-cells / SC-β-cell composition versus control: Stage 5 (S5C)
Method: as §1
(§2) At S5C, samples of the cells that were supplemented with different amino acids during S1C were collected and stained with NKX6.1 and ISL1 and analyzed using flow cytometry. […] To determine how amino acid supplementation affected yield, cell viability assays were performed.
(§3) In the next set of experiments, different combinations of amino acids were tested for their effects on yield and β-cell composition. […] The control group only received treatment with Protocol 2. […] The amino acid supplemented S1 base media were utilized for each S1 feed in a Protocol 2 differentiation at 0.3 L scale, alongside a control. At S5C, samples of cells were collected, stained with NKX6.1 and ISL1 and analyzed by flow cytometry. […] To determine how amino acid supplementation affected yield, cell viability assays were performed.

[4] = system: PDX1+/NKX6.1− cells; assay: Flow cytometry for NKX6.1 and PDX1 at S3C after amino acid supplementation in S1; type: cell-based; details: supplementation in S1 to final 200 μM aspartate, 300 μM glycine, 585 μM serine
Method: as §1
At S3C, samples of the cells that were supplemented with different amino acids during S1C were collected and stained with NKX6.1 and PDX1 and analyzed using flow cytometry. […] In the control, 89.3% of cells were in PDX1+/NKX6.1-, while in aspartate supplemented samples 90% of cells were PDX1+/NKX6.1-(FIG. 6B).

[5] = system: viable cell density; assay: Cell viability assays / yield of Protocol 2 differentiation with amino acid supplementation in S1; type: cell-based
Method: as §2, §3

[6] = target: EZH2 (Homo sapiens, UniProt Q15910); details: cited from earlier work
EZH2, sequence (Q15910 whole entry, species assumed): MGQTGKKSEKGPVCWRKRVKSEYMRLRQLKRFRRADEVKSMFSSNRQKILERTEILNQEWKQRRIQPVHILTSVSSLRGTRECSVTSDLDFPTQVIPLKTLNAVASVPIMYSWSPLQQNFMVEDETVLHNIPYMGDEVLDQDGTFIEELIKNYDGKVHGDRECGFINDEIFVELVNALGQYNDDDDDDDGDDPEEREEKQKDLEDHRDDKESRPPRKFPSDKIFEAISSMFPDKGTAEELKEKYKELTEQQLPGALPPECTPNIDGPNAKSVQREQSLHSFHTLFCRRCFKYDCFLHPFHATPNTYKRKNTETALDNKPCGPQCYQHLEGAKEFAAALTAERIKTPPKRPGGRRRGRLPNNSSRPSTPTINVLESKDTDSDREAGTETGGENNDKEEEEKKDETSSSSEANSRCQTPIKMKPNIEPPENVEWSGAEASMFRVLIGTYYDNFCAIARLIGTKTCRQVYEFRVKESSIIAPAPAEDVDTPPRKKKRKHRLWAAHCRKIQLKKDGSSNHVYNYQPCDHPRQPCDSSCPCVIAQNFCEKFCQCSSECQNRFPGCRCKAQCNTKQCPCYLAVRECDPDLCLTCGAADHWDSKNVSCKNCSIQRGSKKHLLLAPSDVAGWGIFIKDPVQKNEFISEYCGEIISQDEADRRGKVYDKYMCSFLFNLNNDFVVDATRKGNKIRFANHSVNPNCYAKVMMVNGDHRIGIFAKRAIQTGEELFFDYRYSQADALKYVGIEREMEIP
EZH2, sequence (O75530 whole entry partner, species assumed): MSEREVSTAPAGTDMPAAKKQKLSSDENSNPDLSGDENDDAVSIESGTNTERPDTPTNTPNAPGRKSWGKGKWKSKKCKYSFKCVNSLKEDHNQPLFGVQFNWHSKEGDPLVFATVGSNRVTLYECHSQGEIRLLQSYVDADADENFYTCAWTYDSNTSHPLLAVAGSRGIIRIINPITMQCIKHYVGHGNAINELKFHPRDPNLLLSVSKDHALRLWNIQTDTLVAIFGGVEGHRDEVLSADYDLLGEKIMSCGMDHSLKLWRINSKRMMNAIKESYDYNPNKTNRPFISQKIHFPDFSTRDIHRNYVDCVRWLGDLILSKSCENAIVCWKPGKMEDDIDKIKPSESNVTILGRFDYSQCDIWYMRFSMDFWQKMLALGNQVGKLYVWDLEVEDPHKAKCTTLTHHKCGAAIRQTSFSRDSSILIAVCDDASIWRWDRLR
EZH2, sequence (Q15022 whole entry partner, species assumed): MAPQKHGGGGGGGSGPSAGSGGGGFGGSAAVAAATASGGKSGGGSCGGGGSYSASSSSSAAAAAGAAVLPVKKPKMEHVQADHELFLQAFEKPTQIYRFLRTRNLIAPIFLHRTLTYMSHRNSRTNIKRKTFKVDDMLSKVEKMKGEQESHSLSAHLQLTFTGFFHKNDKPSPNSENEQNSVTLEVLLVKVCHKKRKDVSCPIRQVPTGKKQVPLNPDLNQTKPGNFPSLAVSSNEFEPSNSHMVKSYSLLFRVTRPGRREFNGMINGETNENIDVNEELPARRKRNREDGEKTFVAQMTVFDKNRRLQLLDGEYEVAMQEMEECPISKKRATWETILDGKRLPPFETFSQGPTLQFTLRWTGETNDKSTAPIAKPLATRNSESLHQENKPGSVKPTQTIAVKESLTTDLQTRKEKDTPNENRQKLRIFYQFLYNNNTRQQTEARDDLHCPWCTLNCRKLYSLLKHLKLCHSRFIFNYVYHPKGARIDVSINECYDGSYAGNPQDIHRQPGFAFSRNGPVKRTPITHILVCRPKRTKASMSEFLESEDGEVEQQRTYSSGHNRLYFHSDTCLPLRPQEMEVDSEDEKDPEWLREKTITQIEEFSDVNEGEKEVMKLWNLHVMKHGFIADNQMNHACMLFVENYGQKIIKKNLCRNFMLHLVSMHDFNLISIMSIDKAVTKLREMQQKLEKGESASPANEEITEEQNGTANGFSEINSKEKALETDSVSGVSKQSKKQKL

Compound | % of PDX1+/NKX6.1+ cells [1] | % of Sox17+/Oct3/4− cells [2] | α-like cell development ([3]; S5C) | % of PDX1+/NKX6.1− cells [4] | yield (viable cells at harvest) relative to the control [5] | selectivity compared with GSK126 [6] | amount of SC-β-cells / SC-β-cell composition versus control [3] | selectivity over EZH1 ([6]; EZH2 versus EZH1)
N[C@@H](CO)C(=O)O [Protocol 2 + Serine, serine] | 72.1% | 72.9% | promoted α-like cell development | 89.1% | decreased yield | – | – | –
CCCc1cc(C)[nH]c(=O)c1CNC(=O)c1cc(-c2ccc(N3CCN(C(C)C)CC3)nc2)cc2c1cnn2C(C)C [UNC1999] | – | – | – | – | – | less selective | – | –
glycine [Protocol 2 + Glycine] | 77.2% | 81.1% | – | 89.1% | decreased yield | – | increased | –
CC[C@H](C)n1cc(C)c2c(C(=O)NCc3c(C)cc(C)[nH]c3=O)cc(-c3ccc(N4CCNCC4)nc3)cc21 [GSK126] | – | – | – | – | – | – | – | 150 fold
aspartate [Protocol 2 + Aspartate] | 77.8% | 75.6% | – | 90% | – | – | increased | –
